Reference: patent US5206384A, “Actinonin derivatives and pharmaceutically acceptable salts thereof” (Zaidan Hojin Biseibutsu Kagaku Kai, priority 1990, dated 1993)
pIC50: −log10 of the molar value.

Key:
[1] = biological target: angiotensin-conversion enzyme (ACE) (Homo sapiens, UniProt P12821); test: ACE-inhibitory activity; assay type: biochemical; settings: for pIC50: method of Analytical Biochemistry, 84, 361 (1978)
Description: Thus, we have tested the enzyme-inhibitory activities of some typical compounds of this invention against angiotensin-conversion enzyme (ACE) which participates in the control of blood-pressure in mammalian animals by converting angiotensin I, a peptide-type hormone in brain, into angiotensin II. The determination of ACE-inhibitory activity was carried out in accordance with the method described in "Analytical Biochemistry", 84, 361 (1978) and the activity was estimated in term of the concentration (mole concentration, M) of each compound tested at which the activity of the enzyme can be inhibited by 50% (IC50).

enkephalinase = enkephalinase (Homo sapiens, UniProt P08473); test: Enkephalinase-inhibitory activity; assay type: biochemical; settings: for pIC50: concentration which inhibits enzymatic activity of enkephalinase by 50%
Sequence of enkephalinase (P08473 whole entry, species assumed): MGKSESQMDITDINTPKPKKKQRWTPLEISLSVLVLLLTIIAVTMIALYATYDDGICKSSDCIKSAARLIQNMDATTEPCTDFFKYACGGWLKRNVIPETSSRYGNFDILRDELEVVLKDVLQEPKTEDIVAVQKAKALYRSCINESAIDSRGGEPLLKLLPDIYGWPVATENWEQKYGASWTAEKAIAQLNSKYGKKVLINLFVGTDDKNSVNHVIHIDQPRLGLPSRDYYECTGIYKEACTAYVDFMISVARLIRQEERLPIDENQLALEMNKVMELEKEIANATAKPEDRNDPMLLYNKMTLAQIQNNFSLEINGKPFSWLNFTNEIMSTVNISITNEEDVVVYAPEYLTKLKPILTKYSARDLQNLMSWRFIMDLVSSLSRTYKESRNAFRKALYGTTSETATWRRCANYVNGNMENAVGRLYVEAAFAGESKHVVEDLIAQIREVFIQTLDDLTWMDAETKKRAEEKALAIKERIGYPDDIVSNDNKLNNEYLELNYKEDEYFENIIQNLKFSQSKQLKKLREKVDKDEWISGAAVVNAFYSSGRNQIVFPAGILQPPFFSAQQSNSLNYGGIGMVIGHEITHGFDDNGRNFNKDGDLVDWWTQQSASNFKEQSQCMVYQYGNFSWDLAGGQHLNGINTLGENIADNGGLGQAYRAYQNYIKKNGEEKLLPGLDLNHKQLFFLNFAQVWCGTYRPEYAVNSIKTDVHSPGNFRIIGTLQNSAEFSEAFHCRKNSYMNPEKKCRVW
Description: IC50 concentrations (M concentration) of some typical compounds of this invention which can inhibit enzymatic activity of enkephalinase by 50% were measured.

peptidases = settings: Journal of Antibiotics, 38, 1629-1630 (1985); U.S. Pat. No. 4,663,342; cited from earlier work

Sequence of angiotensin-conversion enzyme (ACE) (P12821 30-1306, species assumed): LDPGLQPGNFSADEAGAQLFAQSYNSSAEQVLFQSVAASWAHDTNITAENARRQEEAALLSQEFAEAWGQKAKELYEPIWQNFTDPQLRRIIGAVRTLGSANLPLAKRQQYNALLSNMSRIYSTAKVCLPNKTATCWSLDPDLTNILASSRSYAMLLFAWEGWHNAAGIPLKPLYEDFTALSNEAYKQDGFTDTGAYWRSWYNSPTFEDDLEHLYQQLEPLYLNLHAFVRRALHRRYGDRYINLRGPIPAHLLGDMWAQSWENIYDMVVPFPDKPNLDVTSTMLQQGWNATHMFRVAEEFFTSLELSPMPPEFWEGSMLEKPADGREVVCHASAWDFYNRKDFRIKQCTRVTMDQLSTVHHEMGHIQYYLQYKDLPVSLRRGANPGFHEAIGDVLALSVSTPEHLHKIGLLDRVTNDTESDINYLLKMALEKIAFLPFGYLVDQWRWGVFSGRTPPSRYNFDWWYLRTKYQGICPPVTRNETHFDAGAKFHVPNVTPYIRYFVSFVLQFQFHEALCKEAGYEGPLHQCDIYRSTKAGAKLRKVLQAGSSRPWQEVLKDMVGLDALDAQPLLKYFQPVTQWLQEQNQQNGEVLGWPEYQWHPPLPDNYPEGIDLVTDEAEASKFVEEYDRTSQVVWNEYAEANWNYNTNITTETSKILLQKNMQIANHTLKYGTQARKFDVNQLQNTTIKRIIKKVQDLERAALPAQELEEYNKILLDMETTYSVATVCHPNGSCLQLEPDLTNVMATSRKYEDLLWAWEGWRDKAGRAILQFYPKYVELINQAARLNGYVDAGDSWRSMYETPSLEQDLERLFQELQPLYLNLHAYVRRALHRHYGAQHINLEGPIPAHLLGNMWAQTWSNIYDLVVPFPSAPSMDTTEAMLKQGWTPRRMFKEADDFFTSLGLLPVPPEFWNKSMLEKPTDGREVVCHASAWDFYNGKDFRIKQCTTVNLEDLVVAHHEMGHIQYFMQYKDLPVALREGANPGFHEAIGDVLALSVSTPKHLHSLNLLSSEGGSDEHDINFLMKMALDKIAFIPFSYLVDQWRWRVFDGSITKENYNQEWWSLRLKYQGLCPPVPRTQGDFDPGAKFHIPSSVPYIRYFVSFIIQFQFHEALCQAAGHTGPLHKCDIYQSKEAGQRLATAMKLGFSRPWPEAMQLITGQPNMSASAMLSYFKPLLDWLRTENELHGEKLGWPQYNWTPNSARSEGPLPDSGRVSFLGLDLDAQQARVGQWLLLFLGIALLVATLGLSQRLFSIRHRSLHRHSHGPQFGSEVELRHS

SMILES	pIC50 [1]	pIC50 (enkephalinase)	enkephalinase-inhibitory activity, times stronger than that of actinonin (enkephalinase; relative to actinonin as reference, from Table 2)	inhibitory activities against angiotensin-converting enzymes (in words) [1]	inhibits a wide variety of peptidases (in words) (peptidases)
CCCCC[C@H](CC(=O)NOS(=O)(=O)O)C(=O)NC(C(=O)N1CCC[C@H]1COS(=O)(=O)O)C(C)C (stereo in doubt) [Compound of formula (Ia), (2R)-2-(Sulfoxyaminocarbonylmethyl)heptanoyl-L-valyl-(2S)-2-(sulfoxymethyl)pyrrolidine]	4.04	4.85			
CCCCC[C@H](CC(=O)NO)C(=O)NC(C(=O)N1CCC[C@H]1C(=O)O)C(C)C (stereo in doubt) [Compound of formula (Ib), (2R)-2-(Hydroxyaminocarbonylmethyl)heptanoyl-L-valyl-L-proline]	4.55	6.51	more than 10 times		
CCCCC[C@H](CC(=O)NO)C(=O)NC(C(=O)N1CCC[C@H]1COS(=O)(=O)O)C(C)C (stereo in doubt) [Compound of formula (Ig), (2R)-2-(Hydroxyaminocarbonylmethyl)heptanoyl-L-valyl-(2S)-2-(sulfoxymethyl)pyrrolidine]	3.37	5.39			
CCCCC[C@H](CC(=O)NO)C(=O)N[C@H](C(=O)N1CCC[C@H]1CO)C(C)C [Actinonin, actinonin]	3.23	5.25		low levels of inhibitory activity	inhibits a wide variety of peptidases
CCCCC[C@H](CC(=O)NO)C(=O)N[C@H](C(=O)N1CCC[C@H]1C(=O)NO)C(C)C [Compound of formula (Id), (2R)-2-(Hydroxyaminocarbonylmethyl)heptanoyl-L-valyl-L-proline.hydroxamide]	6.28	5.92			
